What all share (type): biochemical
One test concerns the target T1, human FLT4 (Homo sapiens, UniProt P35916).
T1 construct: a construct expressing the human FLT4 (789-1207) with an amino terminal GST tag; host or cells: Sf9 insect cells (baculovirus)
Briefly: FLT4 kinase assay (DELFIA enzyme inhibition). The conditions noted are these: read-out: FLT4 IC50. Summed up: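 GST-tagged human FLT4 (789-1207) from Sf9 cells phosphorylates a biotinylated MET (Tyr1253)-derived peptide for 30 min at room temperature, stopped with EDTA. Phosphopeptide is captured on Neutravidin and detected with Eu-labelled anti-phosphotyrosine antibody by time-resolved fluorescence; IC50 from % inhibition curves.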

Another test concerns the target T2, human FLT3 (Homo sapiens, UniProt P36888).
T2 construct: a construct expressing the human FLT3 (564-993) with an amino terminal GST tag; host or cells: Sf9 insect cells (baculovirus)
T2 sequence (P36888 564-993): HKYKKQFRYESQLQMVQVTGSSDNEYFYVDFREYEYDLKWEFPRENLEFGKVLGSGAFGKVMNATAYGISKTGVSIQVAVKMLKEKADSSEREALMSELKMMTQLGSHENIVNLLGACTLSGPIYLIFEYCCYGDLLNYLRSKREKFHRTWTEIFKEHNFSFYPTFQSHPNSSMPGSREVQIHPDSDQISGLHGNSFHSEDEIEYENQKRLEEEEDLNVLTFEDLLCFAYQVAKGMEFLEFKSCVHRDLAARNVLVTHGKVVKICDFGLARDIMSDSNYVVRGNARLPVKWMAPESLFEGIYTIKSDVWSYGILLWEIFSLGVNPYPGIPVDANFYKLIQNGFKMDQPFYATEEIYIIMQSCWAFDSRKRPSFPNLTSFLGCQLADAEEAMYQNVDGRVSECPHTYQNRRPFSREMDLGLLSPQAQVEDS
Put plainly: FLT3 kinase assay (DELFIA enzyme inhibition). In short, it runs like this: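 GST-tagged human FLT3 (564-993), expressed in sf9 cells, phosphorylated a biotinylated Gastrin Precursor (Tyr 87)-derived peptide for 30 min at room temperature before EDTA stop. The captured peptide was detected by Eu-labelled anti-phosphotyrosine DELFIA time-resolved fluorescence. IC50 was derived from % inhibition curves.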

Another test concerns the target T3, human Aurora A (Homo sapiens, UniProt O14965).
T3 construct: Histidine tag (N); host or cells: Sf9 insect cells (baculovirus)
T3 sequence (O14965 1-403): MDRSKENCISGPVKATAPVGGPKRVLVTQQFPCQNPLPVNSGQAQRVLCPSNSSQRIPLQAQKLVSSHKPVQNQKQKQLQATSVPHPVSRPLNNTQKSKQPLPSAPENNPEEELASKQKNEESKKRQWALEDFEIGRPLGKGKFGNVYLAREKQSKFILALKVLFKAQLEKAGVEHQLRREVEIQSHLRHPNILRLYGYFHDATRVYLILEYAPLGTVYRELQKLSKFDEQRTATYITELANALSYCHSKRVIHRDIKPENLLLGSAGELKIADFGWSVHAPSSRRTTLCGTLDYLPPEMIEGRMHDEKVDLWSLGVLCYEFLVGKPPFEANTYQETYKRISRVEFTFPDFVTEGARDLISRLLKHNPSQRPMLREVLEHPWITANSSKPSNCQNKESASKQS
Put plainly: Aurora A kinase assay (DELFIA enzyme inhibition). The conditions noted are these: read-out: Aurora A IC50. In short, it runs like this:
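DELFIA read-out (time-resolved Eu fluorescence, 620 nm emission) after Neutravidin capture of biotinylated peptide substrate and antibody detection. Reaction: Ni-agarose-purified Aurora A, 30 min at room temperature, stopped with 100 mM EDTA.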

Bounds are passed on as bounds.

T1 sequence (P35916 789-1207): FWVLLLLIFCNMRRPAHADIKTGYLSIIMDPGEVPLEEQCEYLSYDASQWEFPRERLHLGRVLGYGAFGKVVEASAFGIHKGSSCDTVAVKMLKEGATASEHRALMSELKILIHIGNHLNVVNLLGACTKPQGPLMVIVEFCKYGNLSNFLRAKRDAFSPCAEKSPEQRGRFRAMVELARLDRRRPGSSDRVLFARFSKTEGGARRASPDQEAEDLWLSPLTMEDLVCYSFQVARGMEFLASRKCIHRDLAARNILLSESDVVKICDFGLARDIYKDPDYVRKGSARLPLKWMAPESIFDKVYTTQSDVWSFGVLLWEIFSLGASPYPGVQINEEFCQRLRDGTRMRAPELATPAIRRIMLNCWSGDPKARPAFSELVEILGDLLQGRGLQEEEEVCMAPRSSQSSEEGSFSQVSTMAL

Regarding `NC(=O)c1nc(-c2c(F)cccc2F)oc1Nc1ccc(N2CCCCC2)cc1` [Example Q-13, 2-(2,6-difluorophenyl)-5-(4-(piperidin-1-yl)phenylamino)oxazole-4-carboxamide], the IC50 at human FLT4 was under 10 µM; against human FLT3, under 10 µM; at human Aurora A, under 100 µM.

In the case of `COc1ccc(-c2oc(-c3c[nH]c4ccccc34)nc2C(N)=O)cc1` [Example E-3, 2-(1H-indol-3-yl)-5-(4-methoxyphenyl)oxazole-4-carboxamide], the IC50 at human FLT4 is under 10 µM; on human FLT3 it was under 100 µM; at human Aurora A, under 100 µM.

Regarding `COc1ccc(-c2oc(-c3cn[nH]c3)nc2C(N)=O)cc1` [Example N-2, 5-(4-methoxyphenyl)-2-(1H-pyrazol-4-yl)oxazole-4-carboxamide], the IC50 is under 10 µM at human FLT4, under 100 µM against human FLT3 and under 10 µM at human Aurora A.

Take `CN1CCN(CCOc2ccc(-c3oc(-c4c(F)cccc4F)nc3C(N)=O)cc2)CC1` [Example S-1, 2-(2,6-difluorophenyl)-5-(4-(2-(4-methylpiperazin-1-yl)ethoxy)phenyl)oxazole-4-carboxamide]: the IC50 on human FLT4 was under 10 µM; against human FLT3, under 100 µM; on human Aurora A, under 10 µM.

With `NC(=O)c1nc(-c2c(F)cccc2F)oc1Nc1ccc(-c2nnn[nH]2)cc1` [Example Q-34, 5-(4-(1H-tetrazol-5-yl)phenylamino)-2-(2,6-difluorophenyl)oxazole-4-carboxamide], the IC50 on human FLT4, at human FLT3 and on human Aurora A was under 10 µM throughout.

Regarding `NC(=O)c1nc(-c2c(F)cccc2F)oc1-c1ccc(OCCN2CCC[C@H]2CO)cc1` [Example S-5, (S)-2-(2,6-difluorophenyl)-5-(4-(2-(2-(hydroxymethyl)pyrrolidin-1-yl)ethoxy)phenyl)oxazole-4-carboxamide], the IC50 was under 10 µM on human FLT4, under 100 µM against human FLT3 and under 10 µM on human Aurora A.

As to `NC(=O)c1nc(-c2c(F)cccc2F)oc1Nc1cccc(OCCN2CCOCC2)c1` [Example Q-10, 2-(2,6-difluorophenyl)-5-(3-(2-morpholinoethoxy)phenylamino)oxazole-4-carboxamide], the IC50 on human FLT4, against human FLT3 and on human Aurora A was under 10 µM in each case.

For the molecule `NC(=O)c1nc(-c2c(F)cccc2F)oc1-c1ccc(OCC(O)CN2CCCCC2)cc1` (stereo not drawn) [Example T-1, 2-(2,6-difluorophenyl)-5-(4-(2-hydroxy-3-(piperidin-1-yl)propoxy)phenyl)oxazole-4-carboxamide], the half-inhibitory concentration (IC50) at human FLT4, on human FLT3 and on human Aurora A was under 10 µM each time.

With `NC(=O)c1nc(Nc2ccc3cn[nH]c3c2)oc1-c1ccc(N2CCNCC2)cc1` [Example R-16, 2-(1H-indazol-6-ylamino)-5-(4-(piperazin-1-yl)phenyl)oxazole-4-carboxamide], the IC50 at human FLT4, against human FLT3 and on human Aurora A was under 10 µM in each case.

In the case of `NC(=O)c1nc(-c2c(F)cccc2F)oc1Nc1ccc(C(=O)NCCO)cc1` [Example U-16, 5-(4-((2-hydroxyethyl)carbamoyl)phenylamino)-2-(2,6-difluorophenyl)oxazole-4-carboxamide], the IC50 at human FLT4, against human FLT3 and on human Aurora A was under 10 µM in each case.

For `NC(=O)c1nc(-c2c(F)cccc2F)oc1Nc1ccc(S(=O)(=O)N2CCOCC2)cc1` [Example Q-29, 2-(2,6-difluorophenyl)-5-(4-(morpholinosulfonyl)phenylamino)oxazole-4-carboxamide], the IC50 at human FLT4, at human FLT3 and at human Aurora A was under 10 µM each time.

`COc1ccc(-c2oc(Nc3ccccc3F)nc2C(N)=O)cc1` [Example R-8, 2-(2-fluorophenylamino)-5-(4-methoxyphenyl)oxazole-4-carboxamide]: the IC50 on human FLT4, on human FLT3 and on human Aurora A was under 10 µM in each case.

Regarding `NC(=O)c1nc(-c2c(F)cccc2F)oc1Nc1ccc(CN2CCCCC2)cc1` [Example Q-56, 2-(2,6-difluorophenyl)-5-(4-(piperidin-1-ylmethyl)phenylamino)oxazole-4-carboxamide], the IC50 at human FLT4, against human FLT3 and on human Aurora A was under 10 µM each time.

For `NC(=O)c1nc(-c2c(F)cccc2F)oc1Nc1ccc(-n2ccnc2)cc1` [Example Q-24, 5-(4-(1H-imidazol-1-yl)phenylamino)-2-(2,6-difluorophenyl)oxazole-4-carboxamide], the IC50 at human FLT4, against human FLT3 and on human Aurora A was under 10 µM in each case.

`CN(C)C(=O)c1ccc(Nc2oc(-c3c(F)cccc3F)nc2C(N)=O)cc1` [Example Q-20, 2-(2,6-difluorophenyl)-5-(4-(dimethylcarbamoyl)phenylamino)oxazole-4-carboxamide]: the IC50 on human FLT4, on human FLT3 and on human Aurora A was under 10 µM each time.

`COc1ccc(-c2oc(Nc3ccccc3)nc2C(N)=O)cc1` [Example R-1, 5-(4-methoxyphenyl)-2-(phenylamino)oxazole-4-carboxamide]: the IC50 on human FLT4, against human FLT3 and on human Aurora A was under 10 µM in each case.

Regarding `NC(=O)c1nc(-c2c(F)cccc2F)oc1-c1ccc(OCC(O)CN2CCOCC2)cc1` (stereo not drawn) [Example T-2, 2-(2,6-difluorophenyl)-5-(4-(2-hydroxy-3-morpholinopropoxy)phenyl)oxazole-4-carboxamide], the IC50 on human FLT4, on human FLT3 and on human Aurora A was under 10 µM in each case.

For the molecule `CN(CCO)CCOc1ccc(-c2oc(-c3c(F)cccc3F)nc2C(N)=O)cc1` [Example S-8, 2-(2,6-difluorophenyl)-5-(4-(2-((2-hydroxyethyl)(methyl)amino)ethoxy)phenyl)oxazole-4-carboxamide], the half-inhibitory concentration (IC50) at human FLT4, at human FLT3 and at human Aurora A was under 10 µM each time.

As for `Cc1cccc(C)c1-c1nc(C(N)=O)c(Nc2ccc(N3CCNCC3)cc2)o1` [Example Q-37, 2-(2,6-dimethylphenyl)-5-(4-(piperazin-1-yl)phenylamino)oxazole-4-carboxamide], the IC50 on human FLT4, on human FLT3 and on human Aurora A was under 10 µM throughout.

`COc1ccc(-c2oc(Nc3ccccc3C)nc2C(N)=O)cc1` [Example R-5, 2-(o-toluidino)-5-(4-methoxyphenyl)oxazole-4-carboxamide]: the IC50 at human FLT4, against human FLT3 and on human Aurora A was under 10 µM in each case.

With `CS(=O)(=O)c1ccc(Nc2oc(-c3cccc4[nH]ncc34)nc2C(N)=O)cc1` [Example Q-58, 2-(1H-indazol-4-yl)-5-(4-(methylsulfonyl)phenylamino)oxazole-4-carboxamide], the IC50 on human FLT4, on human FLT3 and on human Aurora A was under 10 µM throughout.

On to `NC(=O)c1nc(-c2c(F)cccc2F)oc1Nc1ccc(S(N)(=O)=O)cc1` [Example Q-25, 2-(2,6-difluorophenyl)-5-(4-(sulfonamide)phenylamino)oxazole-4-carboxamide], for which the IC50 at human FLT4, against human FLT3 and at human Aurora A was under 10 µM throughout.

Regarding `NC(=O)c1nc(-c2c(F)cccc2F)oc1Nc1ccc(C(=O)N2CCOCC2CO)cc1` (stereo not drawn) [Example U-19, 2-(2,6-difluorophenyl)-5-(4-(3-(hydroxymethyl)morpholine-4-carbonyl)phenylamino)oxazole-4-carboxamide], the IC50 on human FLT4, against human FLT3 and at human Aurora A was under 10 µM throughout.

As to `NC(=O)c1nc(Nc2ccc3[nH]ncc3c2)oc1-c1ccc(N2CCNCC2)cc1` [Example R-15, 2-(1H-indazol-5-ylamino)-5-(4-(piperazin-1-yl)phenyl)oxazole-4-carboxamide], the IC50 at human FLT4, against human FLT3 and on human Aurora A was under 10 µM throughout.

For the origin of these results see US9187465B2, “Oxazole tyrosine kinase inhibitors” (Sareum Limited, priority 2007, dated 2015).
